Data from paper PMC6302136, “Quantitative Chemotherapeutic Profiling of Gynecologic Cancer Cell Lines Using Approved Drugs and Bioactive Compounds^” (Translational Oncology, 2018).
Read-outs that look alike come from different tables or passages of the source.

Experiments:
[1] = tested on: ovarian cancer cell lines; test: qHTS ATPlite cell viability, ovarian cancer cell lines; assay type: cell-based, human; conditions: Ovarian cell line killer; for IC50: mean of cell lines fulfilling criteria, 48 h, read-out: Average IC50; for Average SI: vs HEK 293T, >100 = inactive in HEK293T
HeLa cells = test: qHTS ATPlite cell viability, HeLa cells; assay type: cell-based, human; conditions: for Avg SI: HeLa selective compounds, vs HEK 293T; for IC50: HeLa, confirmation screen, 48 h
PA-1 cells = test: ATP content (ATPlite) cell viability assay in PA-1 cells; assay type: cell-based, human; conditions: for IC50: Homo sapiens, PA-1; for Avg SI: PA-1 selective compounds, vs HEK 293T, >100 = inactive in HEK293T
CAOV-3 cells = test: ATP content (ATPlite) cell viability assay in CAOV-3 cells; assay type: cell-based, human; conditions: Homo sapiens, Caov-3, assay optimization
Description: (§1) The ATPlite luminescence assay system assay kit was used to determine cell viability. The reagent was reconstituted and prepared as described by the manufacturer. To measure the cell death caused by the compounds, cells were cultured in 4 μl of media for 16 hours at 37°C with 5% CO2 in assay plates, followed by the addition of DMSO or 16 SOC chemotherapeutic compounds dissolved in DMSO. SOC compounds were dosed at 11 concentrations (1:3 dilution) in quadruplicate from 57.5 μM to 0.977 nM using the automated Wako 1536 Pin Tool workstation and incubated at 37°C with 5% CO2 for 24, 48, or 72 hours. Four microliters of ATPlite, the ATP monitoring reagent, was then added to each well of the assay plates using the Multidrop Combi reagent dispenser followed by incubation for 15 minutes at room temperature. The resulting luminescence was measured using the ViewLux plate reader. Data were normalized for each drug using the largest luminescence value as 100% full cell viability (0% cell killing) and to the smallest luminescence value 0% viability (100% cell killing).

[2] = tested on: 11 gynecologic cancer cell lines; test: qHTS ATPlite cell viability, gynecologic cancer cell lines (ovarian, cervical, placental); assay type: cell-based, human; conditions: for Cell Lines Active: number of the 11 cancer cell lines in which the compound is active (<1 μM potency, >70% efficacy); for Average SI: selectivity index vs HEK 293T
Description: as §1
(§2) A qHTS [79], in which each compound was assayed in five concentrations (0.092, 0.46, 2.3, 11.5, and 57.5 μM), was performed for the primary compound screen using the NPC [80] and NPACT drug libraries at NCATS. The OBGYN cancer and HEK 293T control cells were seeded into 1536-well assay plates at 1000 cells per 4 μl/well and incubated at 37°C in 5% CO2 for 48 hours. The ATPlite assay to determine the IC50 values for each compound was conducted as described above. Plates were processed on the fully integrated Kalypsys robotic system.

[3] = tested on: placental cancer cell lines (JAR, JEG-3); test: qHTS ATPlite cell viability, placental cancer cell lines; assay type: cell-based, human; conditions: Placental cancer cell line killer; for IC50: Homo sapiens, JEG-3, mean of cell lines fulfilling criteria, 48 h, read-out: Average IC50
Description: as §1
The ATPlite assay to determine the IC50 values for each compound was conducted as described above. Plates were processed on the fully integrated Kalypsys robotic system.

HEK 293T cells [4] = tested on: HEK 293T cells; set-up: method as in PMID 31498718; conditions: CellTiterGlo, cited from earlier work
HEK 293T cells [5] = test: cells; conditions: 48 h; for IC50: read-out: IC50 (HEK 293T toxicity)
Description: as §1, §2

[6] = confirmation screen, 48 h, read-out: Avg IC50
[7] = Homo sapiens, average IC90 over the cell lines in which the compound is active, read-out: IC90
[8] = toxic compounds, average over all cancer cell lines, mean ± S.D.
[9] = HEK 293T, this screen (ATPlite)

With `CNc1nccc(-c2cccnc2Oc2cc(C(=O)Nc3cccc(C(F)(F)F)c3)ccc2C)n1` [AMG-Tie2-1] the IC50 [1] was 15900 ± 9710 nM and the “Average SI” value [1] was >100.
In the case of `Cc1cc(Nc2nc(N[C@@H](C)c3ccc(F)cc3)c(C#N)cc2F)[nH]n1` [AZ-960], the IC50 ([1]; Homo sapiens) is reported as 12000 ± 7750 nM and the “Average SI” value [1] is reported as >100.
For `COc1cc(N2CCC(N)CC2)ccc1Nc1ncc(Cl)c(-c2c[nH]c3ccccc23)n1` [AZD3463], the “Avg SI” value (HeLa cells) was 30.3 and the IC50 (HeLa cells) was 638 nM.
With `COc1cccc2c1C(=O)c1c(O)c3c(c(O)c1C2=O)C[C@@](O)(C(=O)CO)C[C@@H]3O[C@H]1C[C@H](N)[C@H](O)[C@H](C)O1` [Adriamycin] the IC50 (PA-1 cells; 24 hours incubation, assay optimization, read-out: IC50 (PA-1)) was 109 nM, the IC50 (PA-1 cells; 48 hours incubation, assay optimization, read-out: IC50 (PA-1)) was 11.8 nM and the IC50 (PA-1 cells; 72 hours incubation, assay optimization, read-out: IC50 (PA-1)) was 3.59 nM. The IC50 (PA-1 cells; [6]) was 576 nM, the “Avg SI” value (PA-1 cells) was 7.02 and the IC50 (CAOV-3 cells; 24 hours incubation) was 15900 nM. It also gave an IC50 (CAOV-3 cells; 48 hours incubation) of 98.2 nM and an IC50 (CAOV-3 cells; 72 hours incubation) of 73.7 nM.
With `CC[C@@H]1C(=O)N(C)c2cnc(Nc3ccc(C(=O)NC4CCN(C)CC4)cc3OC)nc2N1C1CCCC1` [BI-2536] the IC90 ([2]; Homo sapiens) was 39.7 nM and the “Cell Lines Active” value [2] was 4.
Compound `COc1ccc2cc3[n+](cc2c1OC)CCc1cc2c(cc1-3)OCO2` [Berberine] has an IC50 [3] of 4410 ± 662 nM.
For `CC(C)C[C@H](NC(=O)[C@@H](NC(=O)c1cccc(-c2ccccc2)n1)[C@@H](C)O)B(O)O` [CEP-18770 (Delanzomib)], the IC90 [2, 7] was 391 nM and the “Cell Lines Active” value [2] was 6.
In the case of `CN(NC(=O)CC(=O)NN(C)C(=S)c1ccccc1)C(=S)c1ccccc1` [Elesclomol], the IC90 [2, 7] is reported as 283 nM, the IC50 ([2]; Homo sapiens, average over the cell lines in which the compound was active, read-out: average IC50) is reported as 173 nM and the “Cell Lines Active” value [2] is reported as “six”. For the same compound, the “Cell Lines Active” value ([2]; listed as Elesclomol (STA-4783)) was 6.
For `COc1cc(Nc2ncc(F)c(Nc3ccc4c(n3)N(COP(=O)(O)O)C(=O)C(C)(C)O4)n2)cc(OC)c1OC` [Fostamitinib], the IC50 ([1]; Homo sapiens) was 6240 ± 4060 nM, the “Average SI” value [1] was >100 and the “Average SI” value ([1]; listed as fostamatinib) was > 100.
For `C[C@@H](Oc1cc(-n2cnc3ccc(CN4CCN(C)CC4)cc32)sc1C(N)=O)c1ccccc1C(F)(F)F` [GSK461364], the IC50 [3] was 3520 ± 133 nM and the “Average SI” value ([3]; vs HEK 293T, >100 = inactive in HEK293T) was 8.81 ± 0.333.
With `CN(C)C1CCN(C(=O)c2ccc(NC(=O)Nc3ccc(-c4nc(N5CCOCC5)nc(N5CCOCC5)n4)cc3)cc2)CC1` [Gedatolisib] the IC90 ([2]; Homo sapiens) was 6800 nM and the “Cell Lines Active” value [2] was 4.
In the case of `CC[C@@]1(O)C(=O)OCc2c1cc1n(c2=O)Cc2c-1nc1ccccc1c2/C=N/OC(C)(C)C` [Gimatecan], the IC90 [2, 7] is reported as 275 ± 28 nM, the “Cell Lines Active” value [2] is reported as 4 and the IC50 (PA-1 cells; [6]) is reported as 33.7 nM. For the same compound, the “Avg SI” value (PA-1 cells) was 12.5.
In the case of `CCN(CC)Cc1ccc2cc(COC(=O)Nc3ccc(C(=O)NO)cc3)ccc2c1` [Givinostat], the IC50 ([2]; Homo sapiens, toxic compounds, average over all cancer cell lines, 48 h, mean ± S.D., read-out: Average IC50) is listed as 3500 ± 3880 nM, the “Average SI” value [2, 8] is listed as 1.74 ± 1.25 and the “Efficacy (%) (independent screen, HEK 293T)” value (HEK 293T cells [4]) is listed as 112%. The “Independent Screen (confirmation of HEK 293T toxicity)” value (HEK 293T cells [4]) was “Confirmed toxic”, the IC50 (HEK 293T cells [4]; independent screen) was 1110 nM and the “Efficacy (%) (HEK 293T toxicity)” value (HEK 293T cells [5]; [9]) was 65.6%. For the same compound, the IC50 (HEK 293T cells [5]; Homo sapiens, HEK-293T) was 2910 nM and the “toxicity to HEK 293T cells” value (HEK 293T cells [5]; human) was “equally toxic to HEK 293T cells”.
With `Cc1csc(NC(=O)CSc2nc3c(c(C(F)(F)F)c2C#N)CCC3)n1` [Irestatin 9389] the IC50 ([2]; toxic compounds, average over all cancer cell lines, 48 h, mean ± S.D., read-out: Average IC50) was 3520 ± 3120 nM, the “Average SI” value [2, 8] was 0.51 ± 0.20 and the “Efficacy (%) (HEK 293T toxicity)” value (HEK 293T cells [5]; [9]) was 102%. The IC50 (HEK 293T cells [5]; [9]) was 1340 nM.
In the case of `C[C@@H](Oc1ccc2[nH]nc(/C=C/c3cnn(CCO)c3)c2c1)c1c(Cl)cncc1Cl` [LY2874455], the “Avg SI” value (HeLa cells) is reported as 38.8 and the IC50 (HeLa cells; Homo sapiens) is reported as 240 nM.
